The experiment has as its system TC-1 tumors. The experiment can be described thus: In vivo tumor treatment experiment, TC-1 tumor-bearing mice (tumor volume, survival). Details: species or system C57BL/6 mice. Conditions: combinatorial treatment with cisplatin; compared to cisplatin alone. As for the experimental part: Left panel is representative flow cytometry analysis. […] IgG antibody was used as a control. […] Left panel is representative flow cytometry.
For in vivo tumor treatment experiment using only protein, 1×10^5 TC-1 cells were injected subcutaneously into C57BL/6 mice (10 per group). After 3 days, 100 μg of each protein was injected intravenously three times with 3 day intervals. Mice were monitored for tumor growth by palpation and inspection twice a week. For in vivo combined tumor treatment experiments, 1×10^5 TC-1 cells or 5×10^5 CT 26 cells were subcutaneously injected into C57BL/6 mice (10 per group) or BALB/c mice. After 5 days, cisplatin (5 mg/kg) or saline (control) was intraperitoneally injected two times at a 3 day interval. 6 days after tumor challenge, mice received 100 μg of protein each, intravenously injected three times with 3 day intervals.

Consider “AnnexinV: Annexin V protein alone, purified from E. coli, used as control”, for which the “therapeutic anti-tumor effect in TC-1 tumor bearing mice” value is on record as “did not generate a significantly better therapeutic anti-tumor effect”.

The values above are taken from US11766478B2, “Methods for enhancing antigen-specific immune responses” (priority 2015, dated 2023).
